What follows are molecules tested against sigma receptor (assay: Sigma receptor binding, [^3 H]DTG, brain membranes (both sigma-1 and sigma-2 sites)). Conditions: Table 6; [^3 H]DTG.
Design: species or system guinea pig

Structure (SMILES)	IC50
O=C1c2ccccc2C(=O)N1CCCN1CCN(c2ccccc2)CC1 [Compound 96, N-phenyl-N'-(3-(1-phthalimido)propyl)piperazine]	141 nM
O=C1c2ccccc2C(=O)N1CCCCN1CCN(c2ccccc2)CC1 [Compound 97]	20.3 nM
COc1ccccc1N1CCN(CCCCN2C(=O)c3ccccc3C2=O)CC1 [Compound 120, N-(4-(1-phthalimido)butyl)-N'-(o-methoxyphenyl)piperazine]	64.7 nM

The molecules below were run against PCP receptor (assay: PCP receptor binding, ^3 H-MK-801). Conditions: Table 4.
Design: species or system rat
Protocol: PCP receptor binding assays against ^3 H-MK-801 were conducted as described by Keana et al., Proc. Natl. Acad. Sci (USA) 86: 5631-5635 (1989); Keana et al., Life Sciences 43: 965-973 (1988). For (+) ^3 H-MK-801 binding, 1 nM of radioligand was incubated with about 100 ug of thawed rat brain membrane protein for 4 hr at room temperature. The assays were carried out in 5 mM Tris/acetate and were stopped by rapid filtration through Whatman GF/B or Schleicher & Schuell no. 32 glass fiber filters (presoaked in 0.05% polyethylenamine).

Structure (SMILES)	IC50
CC(Cc1ccc(I)cc1)NCCCc1ccccc1 (racemic) [Compound 22, (±) N-[1-(4'-Iodophenyl)-2-propyl]-3-phenylpropylamine]	> 10000 nM

These molecules were tested against T1, Dopamine D1 receptor (Rattus norvegicus, UniProt P18901) (assay: Dopamine D1 receptor binding, [^3 H]SCH-23390, striatal membranes). Conditions: Table 4.
T1 construct: Rat striatal membranes were prepared from frozen tissue; from tissue; host or cells: rat striatum, frozen tissue
Protocol: Dopamine D1 and D2 receptor binding assays were performed as described by Billard et al., Life Sci. 35: 1885-1893 (1984) using [^3 H]SCH-23390 for the D1 receptors and [^3 H]domperidone for the D2 receptors (Baudry et al., Arch. Pharmacol. 308: 231-237 (1979).
Rat striatal membranes were prepared from frozen tissue by Poltron homogenization in 25 volumes of ice cold Tris-EDTA buffer (50 mM Tris-HCl, 1 mM EDTA, pH 7.4 at 4° C.). The homogenate was centrifuged at 48,000× g for 10 min. at 4° C., and the pellet was resuspended in 25 volumes of the same buffer. This suspension was then incubated at 37° C. for 15 min., followed by recentrifugation as before. The resulting pellet was resuspended in 267 volumes of assay buffer (50 mM Tris-HCl, 120 mM NaCl, 5 mM KCl, 2 mM CaCl2, 1 mM MgCl2, pH 7.4 at 37° C.).
The binding assays were conducted with 100 uL of [^3 H]SCH-23390 or [^3 H]domperidone (to give about 1 nM final), 100 uL of buffer or drug solution, and 800 uL of membrane suspension (to give about 250 ug of striatal membrane protein per assay). The tubes were incubated at 37° C. for 60 min. The assays were stopped by rapid filtration over Schleicher & Schuell #32 or Whatman GF/B glass fiber filters (presoaked in 0.5% polyethyleneimine for [^3 H]domperidone binding), followed by two 3 mL washes of ice cold buffer using a Brandel cell harvester. After vigorous shaking, the filter disks were counted at 52% efficiency in 5 mL of Cytoscint (ICN).

T1 sequence (P18901 whole entry): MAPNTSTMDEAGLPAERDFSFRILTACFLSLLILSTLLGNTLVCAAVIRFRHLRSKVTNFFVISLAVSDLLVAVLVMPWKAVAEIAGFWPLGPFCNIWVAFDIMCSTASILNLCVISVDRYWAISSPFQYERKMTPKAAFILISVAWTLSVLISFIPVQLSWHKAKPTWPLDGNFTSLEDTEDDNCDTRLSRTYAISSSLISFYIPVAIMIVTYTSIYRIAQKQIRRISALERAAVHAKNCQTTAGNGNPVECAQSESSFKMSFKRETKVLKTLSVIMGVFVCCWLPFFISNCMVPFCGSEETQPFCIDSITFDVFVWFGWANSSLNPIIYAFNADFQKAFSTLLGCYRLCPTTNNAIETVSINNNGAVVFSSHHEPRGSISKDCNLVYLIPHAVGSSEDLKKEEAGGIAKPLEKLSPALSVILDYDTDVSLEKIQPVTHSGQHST

Structure (SMILES)	IC50
CC(Cc1ccc(I)cc1)NCCCc1ccccc1 (racemic) [Compound 22, (±) N-[1-(4'-Iodophenyl)-2-propyl]-3-phenylpropylamine]	> 10000 nM

These molecules were tested against T2, sigma-1 binding site (Cavia porcellus, UniProt Q60492) (assay: biochemical). Conditions: Table 10; read-out: SIGMA-1 KI vs. 3H-PENTAZOCINE MEAN.
T2 construct: Guinea pig whole membrane preparations (P2 microsomal fraction); from tissue; host or cells: guinea pig membranes (P2 microsomal fraction), as described by Weber et al; brain inferred from the sister test b489
Design: species or system guinea pig
Protocol: [^3 H]DTG was purchased from DuPont/NEN.
The radioactivity on the filters was determined by scintillation spectrometry at an efficiency of about 50% using Cytoscint (ICN) scintillation fluid.

T2 sequence (Q60492 whole entry): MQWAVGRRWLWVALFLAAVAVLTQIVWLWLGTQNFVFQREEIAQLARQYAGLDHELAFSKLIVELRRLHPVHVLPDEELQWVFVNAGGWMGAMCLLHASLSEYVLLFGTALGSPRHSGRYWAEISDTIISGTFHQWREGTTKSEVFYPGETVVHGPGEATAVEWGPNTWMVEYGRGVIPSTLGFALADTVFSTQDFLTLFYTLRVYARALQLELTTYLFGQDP

Structure (SMILES)	Ki
CC(Cc1ccc(I)cc1)NCCCc1ccccc1 (racemic) [Compound 22, (±) N-[1-(4'-Iodophenyl)-2-propyl]-3-phenylpropylamine]	17.7 nM
O=C1c2ccccc2C(=O)N1CCCN1CCN(c2ccccc2)CC1 [Compound 96, N-phenyl-N'-(3-(1-phthalimido)propyl)piperazine]	3100 nM
O=C1c2ccccc2C(=O)N1CCCCN1CCN(c2ccccc2)CC1 [Compound 97]	195 nM
COc1ccccc1N1CCN(CCCCN2C(=O)c3ccccc3C2=O)CC1 [Compound 120, N-(4-(1-phthalimido)butyl)-N'-(o-methoxyphenyl)piperazine]	512 nM

Same assay, conditions: Table 10; sigma-1/sigma-2

Structure (SMILES)	S1/S2 Ratio
O=C1c2ccccc2C(=O)N1CCCCN1CCN(c2ccccc2)CC1 [Compound 97]	9.587
COc1ccccc1N1CCN(CCCCN2C(=O)c3ccccc3C2=O)CC1 [Compound 120, N-(4-(1-phthalimido)butyl)-N'-(o-methoxyphenyl)piperazine]	6.683

Same assay, conditions: Table 12; read-out: IC50 (nM) at sigma-1

Structure (SMILES)	IC50
CC(Cc1ccc(I)cc1)NCCCc1ccccc1 (racemic) [Compound 22, (±) N-[1-(4'-Iodophenyl)-2-propyl]-3-phenylpropylamine]	17.7 nM

Same assay, conditions: guinea pig, microsomes

Structure (SMILES)	S1/S2 Ratio
CC(Cc1ccc(I)cc1)NCCCc1ccccc1 (racemic) [Compound 22, (±) N-[1-(4'-Iodophenyl)-2-propyl]-3-phenylpropylamine]	0.232

These molecules were tested against T3, sigma-2 binding site (Cavia porcellus, UniProt H0V073) (assay: biochemical). Conditions: Table 10; read-out: SIGMA-2 KI vs. 3H-DTG + PENTAZOCINE MEAN.
T3 construct: Guinea pig whole membrane preparations (P2 microsomal fraction); from tissue; host or cells: guinea pig membranes (P2 microsomal fraction), as described by Weber et al; brain inferred from the sister test b489
T3 sequence (H0V073 1-176): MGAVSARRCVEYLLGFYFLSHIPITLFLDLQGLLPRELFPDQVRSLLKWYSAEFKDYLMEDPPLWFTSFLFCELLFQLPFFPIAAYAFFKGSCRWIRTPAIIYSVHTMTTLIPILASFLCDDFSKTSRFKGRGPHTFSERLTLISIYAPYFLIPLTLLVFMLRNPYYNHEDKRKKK
Design: species or system guinea pig
Protocol: (§1) For the standard equilibrium assay, the mixtures were incubated for 30 min. at room temperature, then filtered and the radioactivity determined as described above.

Structure (SMILES)	Ki
CC(Cc1ccc(I)cc1)NCCCc1ccccc1 (racemic) [Compound 22, (±) N-[1-(4'-Iodophenyl)-2-propyl]-3-phenylpropylamine]	76 nM
O=C1c2ccccc2C(=O)N1CCCN1CCN(c2ccccc2)CC1 [Compound 96, N-phenyl-N'-(3-(1-phthalimido)propyl)piperazine]	149 nM
O=C1c2ccccc2C(=O)N1CCCCN1CCN(c2ccccc2)CC1 [Compound 97]	20.4 nM
COc1ccccc1N1CCN(CCCCN2C(=O)c3ccccc3C2=O)CC1 [Compound 120, N-(4-(1-phthalimido)butyl)-N'-(o-methoxyphenyl)piperazine]	76.6 nM

Same assay, conditions: Table 17; read-out: IC50 (nM) at sigma-2

Structure (SMILES)	IC50
CC(Cc1ccc(I)cc1)NCCCc1ccccc1 (racemic) [Compound 22, (±) N-[1-(4'-Iodophenyl)-2-propyl]-3-phenylpropylamine]	76 nM

The molecules below were run on sigma-2 binding site (assay: biochemical). Conditions: Example 9.
Design: species or system guinea pig
Protocol: as §1

Structure (SMILES)	sigma-1/sigma-2 ratio
O=C1c2ccccc2C(=O)N1CCCN1CCN(c2ccccc2)CC1 [Compound 96, N-phenyl-N'-(3-(1-phthalimido)propyl)piperazine]	87
O=C1c2ccccc2C(=O)N1CCCCN1CCN(c2ccccc2)CC1 [Compound 97]	10
COc1ccccc1N1CCN(CCCCN2C(=O)c3ccccc3C2=O)CC1 [Compound 120, N-(4-(1-phthalimido)butyl)-N'-(o-methoxyphenyl)piperazine]	7

Same assay, conditions: greater than about 10; see Table 10

Structure (SMILES)	ratio of sigma-1/sigma-2 (sigma-2 selective compounds)
O=C1c2ccccc2C(=O)N1CCCN1CCN(c2ccccc2)CC1 [Compound 96, N-phenyl-N'-(3-(1-phthalimido)propyl)piperazine]	greater than 10
O=C1c2ccccc2C(=O)N1CCCCN1CCN(c2ccccc2)CC1 [Compound 97]	greater than 10

These molecules were tested against T4, 5-HT1A receptor (Rattus norvegicus, UniProt P19327) (assay: biochemical). Conditions: not given.
T4 sequence (P19327 1-422): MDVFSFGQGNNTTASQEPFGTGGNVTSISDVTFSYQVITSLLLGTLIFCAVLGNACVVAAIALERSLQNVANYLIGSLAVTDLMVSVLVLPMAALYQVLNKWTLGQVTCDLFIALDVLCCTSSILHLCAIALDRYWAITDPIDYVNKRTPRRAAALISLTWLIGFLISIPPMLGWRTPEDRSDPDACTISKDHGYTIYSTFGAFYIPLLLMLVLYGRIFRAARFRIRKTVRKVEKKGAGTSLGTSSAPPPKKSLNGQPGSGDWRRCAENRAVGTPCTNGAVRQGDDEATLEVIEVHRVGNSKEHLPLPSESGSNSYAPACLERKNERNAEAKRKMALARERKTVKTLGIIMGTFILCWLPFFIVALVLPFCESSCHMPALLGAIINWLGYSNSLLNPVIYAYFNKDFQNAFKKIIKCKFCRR
Assay type: binding
Design: 47: 529-540 (1986); from tissue; host or cells: brain tissue, inferred from the cited method (rat frontal cortex)
Protocol: Further sigma receptor binding assays against [^3 H]DTG and 5HT-1A binding assays were conducted according to the procedure outlined in the previous examples.

Structure (SMILES)	Ratio 5-HT1A /σ
CC(Cc1ccc(I)cc1)NCCCc1ccccc1 (racemic) [Compound 22, (±) N-[1-(4'-Iodophenyl)-2-propyl]-3-phenylpropylamine]	13

Same assay, conditions: Table 5; read-out: 5-HT1A IC50

Structure (SMILES)	IC50
CC(Cc1ccc(I)cc1)NCCCc1ccccc1 (racemic) [Compound 22, (±) N-[1-(4'-Iodophenyl)-2-propyl]-3-phenylpropylamine]	202 nM

— US6057371A, “Sigma receptor ligands and the use thereof” (Virginia Commonwealth University, priority 1992, dated 2000)
